# Assay results taken from ChEMBL document CHEMBL1155071, “Discovery of novel 1,2,3,4-tetrahydroisoquinolines and 3,4-dihydroisoquinoline-1(2H)-ones as potent and selective inhibitors of KDR: synthesis, SAR, and pharmacokinetic properties” (Bioorg Med Chem Lett, 2008).
# Assays:
# [1] = biological target: Vascular endothelial growth factor receptor 2 (Homo sapiens, UniProt P35968); experiment: Inhibition of KDR
# [2] = Aqueous solubility in simulated intestinal fluid at pH 6.8; format: physicochemical
# [3] = tested on: HUVEC; experiment: Antiproliferative activity against VEGF-induced HUVEC; format: functional, cell-based; settings: Homo sapiens
# [4] = tested on: HUVEC; experiment: Antiproliferative activity against FGF-induced HUVEC; format: functional, cell-based; settings: Homo sapiens
# Chain of Vascular endothelial growth factor receptor 2 (P35968 whole entry): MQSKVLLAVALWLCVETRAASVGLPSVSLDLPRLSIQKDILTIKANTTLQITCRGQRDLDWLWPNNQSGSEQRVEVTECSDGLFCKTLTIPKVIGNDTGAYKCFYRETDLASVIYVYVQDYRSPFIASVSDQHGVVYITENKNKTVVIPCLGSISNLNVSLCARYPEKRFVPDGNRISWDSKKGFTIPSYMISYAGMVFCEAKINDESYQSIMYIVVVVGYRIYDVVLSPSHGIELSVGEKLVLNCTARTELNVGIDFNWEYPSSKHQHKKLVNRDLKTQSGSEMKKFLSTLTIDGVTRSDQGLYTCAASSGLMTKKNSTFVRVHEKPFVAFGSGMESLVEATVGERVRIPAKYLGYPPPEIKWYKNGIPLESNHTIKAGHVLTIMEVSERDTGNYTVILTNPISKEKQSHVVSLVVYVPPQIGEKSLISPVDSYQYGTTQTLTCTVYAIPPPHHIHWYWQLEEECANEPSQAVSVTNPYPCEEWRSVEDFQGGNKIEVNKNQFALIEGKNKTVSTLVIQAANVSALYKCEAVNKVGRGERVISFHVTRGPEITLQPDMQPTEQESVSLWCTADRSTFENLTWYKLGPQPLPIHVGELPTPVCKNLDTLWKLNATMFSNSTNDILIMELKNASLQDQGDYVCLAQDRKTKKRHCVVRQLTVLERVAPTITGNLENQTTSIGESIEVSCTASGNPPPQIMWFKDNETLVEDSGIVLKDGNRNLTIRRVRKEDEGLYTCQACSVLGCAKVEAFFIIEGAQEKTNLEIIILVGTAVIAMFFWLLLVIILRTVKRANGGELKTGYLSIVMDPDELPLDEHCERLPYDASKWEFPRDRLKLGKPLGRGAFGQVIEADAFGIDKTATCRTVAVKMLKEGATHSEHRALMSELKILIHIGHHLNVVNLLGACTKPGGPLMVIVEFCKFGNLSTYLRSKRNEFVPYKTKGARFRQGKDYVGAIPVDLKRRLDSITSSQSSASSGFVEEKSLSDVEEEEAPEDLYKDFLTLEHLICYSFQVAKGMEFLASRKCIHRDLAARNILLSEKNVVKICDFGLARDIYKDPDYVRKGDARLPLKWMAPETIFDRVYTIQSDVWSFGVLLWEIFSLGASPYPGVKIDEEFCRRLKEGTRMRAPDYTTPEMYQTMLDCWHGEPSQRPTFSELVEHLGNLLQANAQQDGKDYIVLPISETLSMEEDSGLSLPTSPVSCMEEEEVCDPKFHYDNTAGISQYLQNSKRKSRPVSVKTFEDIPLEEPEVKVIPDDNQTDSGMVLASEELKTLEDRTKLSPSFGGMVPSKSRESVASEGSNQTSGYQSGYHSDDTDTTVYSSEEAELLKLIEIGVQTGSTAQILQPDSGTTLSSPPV
Compound,IC50 [1] [µM],solubility [2] [µg/mL],IC50 [3] [µM],IC50 [4] [µM]
COc1cc2nccc(CN3CCc4c(cccc4C(=O)Nc4ccc(Cl)cc4)C3)c2cc1OC,0.165,12,,
COCCNC(=O)c1cccc2c1CCN(Cc1ccnc3cc(OC)c(OC)cc13)C2,3,> 200,,
COc1cc2nccc(CN3CCc4c(C(=O)Nc5ccc(Cl)c(C(F)(F)F)c5)cccc4C3=O)c2cc1OC,0.003,24,0.022,> 1.14
COc1cc2nccc(CN3CCc4c(cccc4C(=O)Nc4ccc(C(C)(C)C)cc4)C3)c2cc1OC,0.001,34,0.006,> 1.14
COc1cc2nccc(Oc3ccc4c(C(=O)Nc5ccc(Cl)cc5)cccc4c3)c2cc1OC,,,,> 1.14
